Where a name gives a salt, the structure may show the parent alone.
What was measured:
[1] = DTNB assay: rate of disulfide bond reduction; type: biochemical; set-up: unit not given here; details: 2nd order kinetic
Protocol: DTNB ASSAY: This assay determines the rate which a mucolytic agent can reduce a disulfide bond using 5,5-Dithiobis(2-nitrobenzoic acid). DTNB in various pH buffers and allows comparison of the kinetic rates of reducing agents. First, reducing agent stock solutions (30 mM) were made up in DMSO. Each compound stock solution was diluted, […] in 1 ml 50 mM Tris-HCl buffer, pH 7.5, and then added in a 1:1 volumetric ratio to a solution of 100 mM DTNB in 50 mM Tris-HCl buffer, pH 7.5. Max Abs412 was measured and then utilized to calculate the activity concentration. If the observed activity concentrations differed from expected activity concentrations by more than 5%, the volume was accordingly adjusted to kinetically test the rate in the next step. After having added the reducing agents, diluted in a range of pH buffer solutions (pH 6.0-7.5), to 45 mM DTNB in 50 mM Tris-HCl and measured the Abs412 for 5 min rates were calculated as a 2nd order kinetic.

sheep treated with NE = test: TMV studies in sheep (neutrophil elastase model of acute bronchitis); type: in vivo; details: 1 μmole/kg by aerosol after neutrophil elastase (NE)
Protocol: Test articles were administered to the pulmonary surfaces as an inhalation aerosol. For human neutrophil Elastase (HNE) studies, tracheal mucus velocity (TMV) was measured at 1 and 2 hours after HNE (but before drug); and 1, 30, 60, 90, and 120 minutes post-aerosol administration of Compound G.
The measurements of TMV were made as follows: Eight to 10 radiopaque Teflon disks (˜1 mm in diameter, 0.8 mm thick, and weighing between 1.5-2 mg) were introduced into the trachea via an endotracheal tube (ETT). The particles were insufflated by a catheter connected to a source of compressed air (flow rate of 3-4 ml/min at 50 psi). The catheter was removed following insufflation without contacting the tracheal surface. To minimize the ETT effects on TMV, the cuff was deflated throughout the study except for the period of drug delivery. The disk movements were recorded using videotaped fluoroscopy, and individual disk velocities were calculated by measuring the distance traveled by each disk over a 60-s period. A collar containing radiopaque markers of predetermined length was placed around the animal's neck, which was used as a standard to correct for magnification effects intrinsic to the fluoroscopy unit. The mean value of disk velocities was calculated for each time point. To avoid dehydration, the sheep were periodically gavaged with tap water via a nastrogastric tube. […]

[2] = Elimination of inhaled NAC from the lungs in animal studies; type: in vivo; details: inhaled or intranasal, 14C-labeled NAC, administered by inhalation, animal studies (unpublished observation)
Description: NAC, as a topical pulmonary therapeutic agent, is not optimal for the reduction of mucin disulfide bonds. […] For example, in the pH environment of the airway surface (measured in the range of pH 6.0 to 7.2 in CF and COPD airways), NAC exists only partially in its reactive state as a negatively charge thiolate (Jayaraman S, Song Y, Vetrivel L, Shankar L, Verkman A S. Noninvasive in vivo fluorescence measurement of airway-surface liquid depth, salt concentration, and pH. J Clin Invest. 2001; 107(3):317-24) (FIG. 3). […] The relatively low reducing activity at of NAC physiologic airway pH and a the short half-life of NAC on the lung surface provide an explanation for the lack of strong clinical evidence for effective mucus reduction in mucus obstructive diseases.

Row | Compound | Kinetic Reaction Rates of Reduction of DTNB ([1]; pH 6) | Duration of TMV restoration post-dosing (sheep treated with NE) [h] | Tracheal mucus velocity (TMV) (sheep treated with NE; compared with vehicle) | Kinetic Reaction Rates of Reduction of DTNB ([1]; pH 6.5) | Kinetic Reaction Rates of Reduction of DTNB ([1]; pH 7) | Kinetic Reaction Rates of Reduction of DTNB ([1]; pH 7.5) | half-life [2] [min]
1 | N=C(N)NCCCC[C@@H](N)C(=O)NCCOc1cc(CS)c(CS)cc1OCCNC(=O)[C@H](N)CCCCNC(=N)N [Compound G, (2R,2′R)-N,N′-(2,2′-(4,5-bis(mercaptomethyl)-1,2-phenylene)bis(oxy)bis(ethane-2,1-diyl))bis(2-amino-6-guanidinohexanamide) Hydrochloride] | 5154 | 2 | restored TMV to normal, pre-NE levels |  |  |  | 
2 | NCCCC[C@H](N)C(=O)NCCOc1ccc(CS)c(CS)c1 [L, (S)-2,6-diamino-N-(2-(3,4-bis(mercaptomethyl)phenoxy)ethyl)hexanamide] | 1911 |  |  | 5565 | 8847 | 14566 | 
3 | N=C(N)NCCOc1ccc(CS)c(CS)c1 [LL, 1-(2-(3,4-bis(mercaptomethyl)phenoxy)ethyl)guanidine] | 743 |  |  | 2352 | 4661 | 8241 | 
4 | OC[C@@H](O)[C@@H](O)[C@H](O)[C@@H](O)CN(CCOc1ccc(CS)c(CS)c1)C[C@H](O)[C@@H](O)[C@H](O)[C@H](O)CO [N, (2R,2′R,3R,3′R,4R,4′R,5S,5'S)-6,6′-(2-(3,4-bis(mercaptomethyl)phenoxy)ethylazanediyl)dihexane-1,2,3,4,5-pentaol hydrochloride] | 952 |  |  | 2366 | 4382 | 9532 | 
5 | CC(=O)N[C@@H](CS)C(=O)O [NAC, N-acetyl cysteine, reference compound] | 10 |  |  | 26 | 69 | 230 | ~20
6 | CCCCCCN(CCOc1ccc(CS)c(CS)c1)C[C@H](O)[C@@H](O)[C@H](O)[C@H](O)CO [P, (2R,3R,4R,5S)-6-((2-(3,4-bis(mercaptomethyl)phenoxy)ethyl)(hexyl)amino)hexane-1,2,3,4,5-pentaol hydrochloride] | 1018 |  |  | 2701 | 6180 | 13243 | 
7 | CN(C)CCOc1ccc(CS)c(CS)c1 [Q, (4-(2-(dimethylamino)ethoxy)-1,2-phenylene)dimethanethiol hydrochloride] | 954 |  |  | 2984 | 6077 | 15927 | 
8 | N=C(NCCOc1ccc(CS)c(CS)c1)NC(=O)c1nc(Cl)c(N)nc1N [R, 3,5-diamino-N-(N-(2-(3,4-bis(mercaptomethyl)phenoxy)ethyl)carbamimidoyl)-6-chloropyrazine-2-carboxamide hydrochloride] | 2901 |  |  | 7382 | 13522 | 16870 | 
9 | NCCCC[C@H](N)C(=O)NCCCC[C@H](N)C(=O)NCCOc1ccc(CS)c(CS)c1 [S, (S)-2,6-diamino-N-((S)-5-amino-6-(2-(3,4-bis(mercaptomethyl)phenoxy)ethylamino)-6-oxohexyl)hexanamide] | 4483 |  |  | 10715 | 13732 | 15469 | 
10 | NCCCC[C@H](N)C(=O)NCCCC[C@H](N)C(=O)NCCCC[C@H](N)C(=O)NCCOc1ccc(CS)c(CS)c1 [T, (S)-2,6-diamino-N-((S)-5-amino-6-((S)-5-amino-6-(2-(3,4-bis(mercaptomethyl)phenoxy)ethylamino)-6-oxohexylamino)-6-oxohexyl)hexanamide] | 5144 |  |  |  |  |  | 
11 | N=C(N)NCCCC[C@H](N)C(=O)NCCCC[C@H](N)C(=O)NCCCC[C@H](N)C(=O)NCCOc1ccc(CS)c(CS)c1 [U, (S)-2-amino-6-((S)-2-amino-6-((S)-2-amino-6-guanidinohexanamido)hexanamido)-N-(2-(3,4-bis(mercaptomethyl)phenoxy)ethyl)hexanamide Hydrochloride] | 5761 |  |  |  |  |  | 
12 | NCCCC[C@H](N)C(=O)NCCCC[C@H](N)C(=O)NCCOc1cc(CS)c(CS)cc1OCCNC(=O)[C@@H](N)CCCCNC(=O)[C@@H](N)CCCCN [X, (S,2S,2′S)-N,N′-(2,2′-(4,5-bis(mercaptomethyl)-1,2-phenylene)bis(oxy)bis(ethane-2,1-diyl))bis(2-amino-6-((S)-2,6-diaminohexanamido)hexanamide)] | 8029 |  |  |  |  |  | 
13 | N=C(N)NCCCC[C@H](N)C(=O)NCCCC[C@H](N)C(=O)NCCOc1cc(CS)c(CS)cc1OCCNC(=O)[C@@H](N)CCCCNC(=O)[C@@H](N)CCCCNC(=N)N [Y, (S,2S,2′S)-N,N′-(2,2′-(4,5-bis(mercaptomethyl)-1,2-phenylene)bis(oxy)bis(ethane-2,1-diyl))bis(2-amino-6-((S)-2-amino-6-guanidinohexanamido)hexanamide)] | 8718 |  |  |  |  |  | 
14 | N=C(N)NCCCC[C@@H](N)C(=O)NCCCN(CCCNC(=O)[C@H](N)CCCCNC(=N)N)CCOc1ccc(CS)c(CS)c1 [Z, (2R,2′R)-N,N′-(3,3′-(2-(3,4-bis(mercaptomethyl)phenoxy)ethylazanediyl)bis(propane-3,1-diyl))bis(2-amino-6-guanidinohexanamide)] | 7200 |  |  | 10420 | 10631 | 18513 | 

Source: patent publication US9346753B2, “Dithiol mucolytic agents” (PARION SCIENCES, INC., priority 2013, dated 2016)
